# Key:
# [1] = system: Helicobacter pylori TK1029 strain; experiment: Proliferation inhibitory effect (in vitro) by ED50 measurement, viable count; type: cell-based
# Experimental: Helicobacter pylori TK1029 strain (clinical isolate) was cultured in Brucella broth containing 10% FCS and 1×10^6 CFU of bacteria were respectively added to 3 mL of Brain-Heart Infusion Broth (BHI) media (previously added with free fatty acid (stearic acid, oleic acid, linoleic acid, ricinoleic acid, HYA) at 0, 0.5, 5, 50, 500 μg/mL) containing 2% FCS in a 6-well plate. Shaking culture was performed under conditions of temperature 37° C., humidity 100%, microaerobic (5% 02, 10% CO2, 85% N2), the culture medium (0.1 mL) from each well was applied to NISSUI plate, Helicobacter agar medium 15 hr and 25 hr later, and the number of colonies formed after microaerobic culture for 3 days was counted.
# [2] = system: Helicobacter pylori SS1 strain or TN2GF4 strain; experiment: Inhibitory effect (in vivo) of fatty acid, number of bacteria in gastric mucosa of infected mice; parameters: species or system C57BL/6 female mouse
# Experimental: A 5-week-old C57BL/6 female mouse was orally infected 3 times with Helicobacter pylori SS1 strain or TN2GF4 strain (1-5×10^8 CFU) every other day and dissected at 2 weeks from the final infection day, and the number of bacteria in the gastric mucosa was counted. The measurement and the number of bacteria in the gastric mucosa was performed as follows. First, the greater curvature of the stomach of the mouse was incised with scissors for ophthalmology, and the contents were washed away with phosphate buffered saline (pH 7.4, PBS). Next, the mucous membrane was scraped with a slide glass, 1 mL of PBS was added, the mixture was sandwiched between ground glass parts of two glass slides and evenly crushed to prepare a gastric mucosa suspension. The culture medium was applied on a Helicobacter agar plate, cultured for 3 days and the resulting colonies were counted. Water added with fatty acid (200 μM) (HYA, HYB, KetoA, KetoC, linoleic acid, oleic acid, DHA, EPA) was given to the mice from 1 week before infection. The control was free of fatty acid addition (FIG. 3-1 A: infected with SS1 strain, FIG. 3-2 B: infected with TN2GF4 strain).
# [3] = system: Helicobacter suis TKY strain or SNTW101 strain; experiment: Proliferation inhibitory effect (in vivo) of HYA on Helicobacter suis, real-time PCR quantification, 2 weeks after infection; parameters: species or system C57BL/6 female mouse; conditions: 200 μM in water from one week before infection; 2 weeks later
# Experimental: A 5-week-old C57BL/6 female mouse was orally infected 3 times with Helicobacter pylori SS1 strain or TN2GF4 strain (1-5×10^8 CFU) every other day and dissected at 2 weeks from the final infection day, and the number of bacteria in the gastric mucosa was counted. Water added with HYA or linoleic acid (200 μM) was given to the mice from 1 week before infection (FIG. 4-1 A: SS1 strain, FIG. 4-2 B: TN2GF4 strain). A 5-week-old C57BL/6 female mouse was orally infected only once with a stomach suspension of Helicobacter suis TKY strain or SNTW101 strain-infected mouse and dissected 2 weeks later, and the number of bacteria in the gastric mucosa was counted. Water added with HYA (200 μM) was given to the mouse from one week before the infection (FIG. 4-3 C). […]
# DNA was prepared from a part of the stomach tissue by using DNeasy Blood & Tissue Kit (Qiagen) and real-time PCR (model: CFX96 (Bio-Rad)) was performed. As the primer for Helicobacter suis quantification, the following was used by reference to Diagn. […]
# The following were used as the primers for β-actin quantification of the mouse by reference to J. Clin. Microbiol. […]
# For quantification by real-time PCR, iQ™ SYBR Green Supermix was used. […]
# Thereafter, the temperature was increased by 0.5° C. every seconds from 65° C. to 95° C. and the fluorescence was measured. […]
# [4] = system: Helicobacter suis TKY strain; experiment: Gastric MALT lymphoma model: number of Helicobacter suis bacteria in the stomach 6 months after infection; type: in vivo, C57BL/6 female mouse; conditions: 200 μM in water
# Experimental: (§1) Helicobacter suis is suspected to be the cause of the onset of gastric MALT lymphoma. A 5-week-old C57BL/6 female mouse was orally infected only once with a stomach suspension of Helicobacter suis TKY strain-infected mouse and dissected 6 months after the infection, and the number of bacteria in the gastric mucosa was counted according to the method described in Example 5. Water added with HYA (200 μM) was given to the mouse from one week before the infection.
# The measurement of the number of Helicobacter suis bacteria in the stomach of the infected mouse was performed in the same manner as in Example 5. The relative value of the number of bacteria in gastric mucosa when that with HYA non-administration is 1 is shown (FIG. 5-1 A, Item 1: HYA non-administration group, Item 2: HYA administration group).
# Ki-67 positive cells = experiment: Gastric MALT lymphoma model: Ki-67 positive cells in lymphoid follicle (immunostaining); type: in vivo, C57BL/6 female mouse; conditions: 200 μM in water; 6 months after infection with Helicobacter suis TKY strain
# Experimental: as §1
# Ki-67 is known as a marker for cell proliferation and cell cycle. Proliferated cells in a tumor tissue were detected by immunostaining with anti-Ki-67 antibody. A part of the stomach was fixed with 10% neutral formalin buffer to prepare a paraffin block, serial sections were cut out using a microtome and Hematoxylin Eosin (HE) staining was performed. Ki-67 (Clone SP6) rabbit monoclonal antibody (Thermo Fisher Scientific Inc.) diluted 1:300 was used as a dilution antibody, Histofine Simple Stain mouse MAX-PO® (NICHIREI BIOSCIENCES INC., Code: 414341) DAB staining (DAKO Inc.) was used as a secondary antibody, and Hematoxylin was used for comparison staining. As the negative control, rabbit IgG antibody (Code No. X 0936 Lot 050 (DAKO Inc.)) was used. […]
smiles,measurement,setting,value
"CCCCC/C=C\CC(O)CCCCCCCCC(=O)O (stereo not drawn) [HYA, 10-hydroxy-cis-12-octadecenoic acid]",ED50 value times lower than that of ricinoleic acid,[1]; 15 hr after culturing,about 10 times
same,"ED50 value, 15 hr later","[1]; 15 hr shaking culture, BHI 2% FCS, viable count",0.5 µg/mL
same,ED50 values compared with the other fatty acids,[1]; 25 hr after culturing,remarkably lower than or the same level as
same,"ED50 value, 25 hr later","[1]; 25 hr shaking culture, BHI 2% FCS, viable count",0.5 µg/mL
same,"number of Helicobacter pylori in the gastric mucosa, compared to the control","[2]; 200 μM in water from 1 week before infection, 2 weeks from final infection, both SS1 and TN2GF4 strain",significantly suppressed
same,"suppressive action compared to HYB, KetoA, KetoC, linoleic acid, oleic acid, DHA and EPA","[2]; 200 μM in water, SS1 and TN2GF4 strain infected mice",strong suppressive action
same,"proliferation of Helicobacter suis TKY strain, SNTW101 strain (number of bacteria in gastric mucosa)",[3],inhibited proliferation
same,"number of Helicobacter suis bacteria in gastric mucosa, compared to the non-administration group",[4],significantly suppressed
same,"increase in the number of Ki-67 positive cells, compared to the non-administration group",Ki-67 positive cells,significantly suppressed
